The source of these data is ChEMBL document CHEMBL4619727, “Induced osteoblast differentiation by amide derivatives of stilbene: The possible osteogenic agents” (Bioorg Med Chem Lett, 2020).

Active and inactive are the calls of the source. No cut-off for these calls is given here.

The subject of one series is MCF7. Kind of series: Cytotoxicity against human MCF7 cells assessed as cell growth inhibition at 30 ug/ml by MTT assay relative to control. Format: functional. Conditions: read-out: GI. On the technique in general: Formazan colour is commonly taken as a measure of viable cells.
In series [1] the test system is Calvarial osteoblast. Kind of series: Osteo-blastogenic activity in mouse calvarial osteoblast assessed as upregulation of Runx2 mRNA expression at 1 pM to 100 pM measured after 48 hrs by qPCR analysis. In kind it is functional, cell-based. On the technique in general: Real-time PCR tracks product formation cycle by cycle.
For series [2], the system named is Calvarial osteoblast. Kind of series: Osteo-blastogenic activity in mouse calvarial osteoblast assessed as upregulation of BMP2 mRNA expression at 1 pM to 100 pM measured after 48 hrs by qPCR analysis. In kind it is functional, cell-based.
Series [3] has as its system Calvarial osteoblast. Kind of series: Upregulation of ESR1 protein level in mouse calvarial osteoblast at 1 to 100 pM measured after 48 hrs by Western blot analysis. Format: functional, cell-based. (In general: A western blot detects proteins with antibodies after separation by electrophoresis.)
The subject of series [4] is Calvarial osteoblast. Kind of series: Upregulation of ALP mRNA expression in mouse calvarial osteoblast at 1 pM to 100 pM measured after 24 to 48 hrs by qPCR analysis. In kind it is functional, cell-based.
The test system of series [5] is Calvarial osteoblast. Kind of series: Upregulation of ESR2 protein level in mouse calvarial osteoblast at 1 to 100 pM measured after 48 hrs by Western blot analysis. In kind it is functional, cell-based.
The target of series [6] is Estrogen receptor beta (Mus musculus) (UniProt O08537). Kind of series: Induction of ESR2-mediated osteoblast differentiation in mouse calvarial osteoblast assessed as formation of mineralized nodule at 1 to 10 uM measured after 21 days by alizarin red staining based assay. In kind it is cell-based.
In series [7] the test system is Mus musculus. Kind of series: Anti-osteoporosis activity in ovariectomized BALB/c mouse assessed as increase in trabecular thickness in femur bone at 1 to 5 mg/kg, po via gavage administered for 1 month by microCT imaging analysis. In kind it is functional, organism-based.
Series [8] concerns Mus musculus. Kind of series: Anti-osteoporosis activity in ovariectomized BALB/c mouse assessed as reduction in trabecular pattern factor in femur bone at 1 to 5 mg/kg, po via gavage administered for 1 month by microCT imaging analysis. Format: functional, organism-based.
For series [9], the system named is Mus musculus. Kind of series: Anti-osteoporosis activity in ovariectomized BALB/c mouse assessed as increase in trabecular number in femur bone at 1 to 5 mg/kg, po via gavage administered for 1 month by microCT imaging analysis. Format: functional, organism-based.
Series [10] deals with Mus musculus. Kind of series: Anti-osteoporosis activity in ovariectomized BALB/c mouse assessed as increase in femur bone volume density at 1 to 5 mg/kg, po via gavage administered for 1 month by microCT imaging analysis. Format: functional, organism-based.
Series [11] concerns Mus musculus. Kind of series: Anti-osteoporosis activity in ovariectomized BALB/c mouse at 5 mg/kg, po via gavage administered for 1 month by microCT imaging analysis. Format: functional, organism-based.
The test system of series [12] is Mus musculus. Kind of series: Anti-osteoporosis activity in ovariectomized BALB/c mouse assessed as reduction in trabecular spacing in femur bone at 1 to 5 mg/kg, po via gavage administered for 1 month by microCT imaging analysis. Format: functional, organism-based.
For series [13], the system named is Peritoneal macrophage cell. Kind of series: Cytotoxicity against peritoneal macrophage cells (unknown origin) at 5 to 20 uM by MTT assay. In kind it is cell-based.
Series [14] deals with Estrogen receptor beta (Mus musculus) (UniProt O08537). Kind of series: Induction of ESR2-mediated osteoblast differentiation in mouse calvarial osteoblast assessed as increase in ALP activity at 1 pM measured after 48 hrs by spectrophotometric analysis. Format: cell-based.
Series [15] deals with Mus musculus. Kind of series: Anti-osteoporosis activity in ovariectomized BALB/c mouse assessed as increase in trabecular thickness in femur bone at 1 mg/kg, po via gavage administered for 1 month by microCT imaging analysis. In kind it is functional, organism-based.
The subject of series [16] is Mus musculus. Kind of series: Anti-osteoporosis activity in ovariectomized BALB/c mouse assessed as reduction in trabecular pattern factor in femur bone at 1 mg/kg, po via gavage administered for 1 month by microCT imaging analysis. Format: functional, organism-based.
Series [17] relates to Mus musculus. Kind of series: Anti-osteoporosis activity in ovariectomized BALB/c mouse assessed as increase in trabecular number in femur bone at 1 mg/kg, po via gavage administered for 1 month by microCT imaging analysis. Format: functional, organism-based.
Series [18] concerns Mus musculus. Kind of series: Anti-osteoporosis activity in ovariectomized BALB/c mouse assessed as reduction in trabecular spacing in femur bone at 1 mg/kg, po via gavage administered for 1 month by microCT imaging analysis. In kind it is functional, organism-based.
The subject of series [19] is Mus musculus. Kind of series: Anti-osteoporosis activity in ovariectomized BALB/c mouse assessed as increase in femur bone volume density at 1 mg/kg, po via gavage administered for 1 month by microCT imaging analysis. In kind it is functional, organism-based.
Series [20] has as its target Estrogen receptor beta (Mus musculus) (UniProt O08537). Kind of series: Induction of ESR2-mediated osteoblast differentiation in mouse calvarial osteoblast assessed as increase in ALP activity at 100 pM measured after 48 hrs by spectrophotometric analysis. In kind it is cell-based.
The target is the same in series [21]. Kind of series: Induction of ESR2-mediated osteoblast differentiation in mouse calvarial osteoblast assessed as increase in ALP activity at 1 nM measured after 48 hrs by spectrophotometric analysis. In kind it is cell-based.

Sequence of Estrogen receptor beta (Mus musculus) (O08537 whole entry): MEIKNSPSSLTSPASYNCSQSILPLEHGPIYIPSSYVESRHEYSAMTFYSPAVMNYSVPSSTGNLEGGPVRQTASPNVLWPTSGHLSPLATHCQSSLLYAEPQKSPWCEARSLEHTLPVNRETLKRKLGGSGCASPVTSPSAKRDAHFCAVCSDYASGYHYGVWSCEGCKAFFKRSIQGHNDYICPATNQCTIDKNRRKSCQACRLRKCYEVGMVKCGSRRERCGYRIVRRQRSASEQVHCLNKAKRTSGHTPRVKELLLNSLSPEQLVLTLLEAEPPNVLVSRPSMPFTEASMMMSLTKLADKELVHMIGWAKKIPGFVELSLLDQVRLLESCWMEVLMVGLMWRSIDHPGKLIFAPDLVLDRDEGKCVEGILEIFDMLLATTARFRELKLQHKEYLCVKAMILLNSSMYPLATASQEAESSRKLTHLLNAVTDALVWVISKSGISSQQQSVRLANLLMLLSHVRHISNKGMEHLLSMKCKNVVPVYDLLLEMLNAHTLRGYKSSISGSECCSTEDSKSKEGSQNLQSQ

As for `COc1ccc(/C(C)=C(\CCCC(=O)N2CCCC2)c2ccccc2)cc1`, in the series with MCF7, the inhibition of growth at 30 µg/mL was 48.4%.

With `COc1ccc(/C(C)=C(\CCCC(=O)NCc2ccccn2)c2ccccc2)cc1`, in the series with MCF7, the inhibition of growth at 30 µg/mL was in the range of 30 to 48%.

As for `CCCCN(C)C(=O)CCCCC/C(=C(/C)c1ccc(OC)cc1)c1ccccc1`, the outcome (with Calvarial osteoblast [1]; with Calvarial osteoblast [2]; in the series with Calvarial osteoblast [3]; with Calvarial osteoblast [4]; with Calvarial osteoblast [5]; in [6]) was Active. In addition, the outcome with Mus musculus [7], in the series with Mus musculus [8], in the series with Mus musculus [9], with Mus musculus [10], in the series with Mus musculus [11] and in the series on Mus musculus [12] was Active. Further, the outcome in series [14] was Active. Besides, the Activity entry in series [13] is reported as “Non-Toxic”. In addition, the inhibition of growth at 30 µg/mL with MCF7 worked out at 32.1%.

In the case of `O=C(c1ccc(OCCN2CCCCC2)cc1)c1c(-c2ccc(O)cc2)sc2cc(O)ccc12`, the result in the series on Mus musculus [15], with Mus musculus [16], with Mus musculus [17], in the series on Mus musculus [18] and with Mus musculus [19] was Active.

Take `COc1ccc(/C(=C/c2ccccc2)CC(=O)NCCc2ccccn2)cc1`: the inhibition of growth at 30 µg/mL in the series on MCF7 was in the range of 30 to 48%.

`COc1ccc(/C(=C/c2ccccc2)CC(=O)N2CCCC2)cc1`: in the series on MCF7, the inhibition of growth at 30 µg/mL is 30 to 48%.

As for `COc1ccc(/C(C)=C(\CCCCCC(=O)NCCc2ccccn2)c2ccccc2)cc1`, the inhibition of growth at 30 µg/mL in the series on MCF7 lay within 30 to 48%.

For `COc1ccc(/C(C)=C(\CCCC(=O)NCCc2ccccn2)c2ccccc2)cc1`, the result in [20] was Active.

For `COc1ccc(/C(=C/c2ccccc2)CC(=O)NC(C)C)cc1`, the inhibition of growth at 30 µg/mL in the series with MCF7 fell in the range of 30 to 48%.

As to `COc1ccc(/C(C)=C(\CCCCCC(=O)NCc2ccccn2)c2ccccc2)cc1`, the inhibition of growth at 30 µg/mL in the series on MCF7 lay in the range of 30 to 48%.

For `COc1ccc(/C(C)=C(\CCCCCC(=O)N2CCCC2)c2ccccc2)cc1`, in the series with MCF7, the inhibition of growth at 30 µg/mL was in the range of 30 to 48%. Further, in series [14], the outcome was Active.

With `CCCCN(C)C(=O)CCC/C(=C(/C)c1ccc(OC)cc1)c1ccccc1`, in series [14], the outcome was Active.

Consider `COc1ccc(/C(=C/c2ccccc2)CC(=O)N(C(C)C)C(C)C)cc1`, for which the result in [21] was Active.

As for `CCCCCN(C)C(=O)C/C(=C\c1ccccc1)c1ccc(OC)cc1`, the inhibition of growth at 30 µg/mL in the series with MCF7 was in the range of 30 to 48%. In addition, the result in [14] was Active.
